This is an account of results in PubChem BioAssay (NCI).

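Values below derive from 48-hour exposures of cells grown in 96-well plates, with endpoints linearly interpolated between the two concentrations bracketing the appropriate inhibition level. Definition used: TGI = concentration required for complete inhibition of growth.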

The first assay concerns SF-268 CNS. The assay can be described thus: NCI tumour cell line growth inhibition, 48 h.
Take `OCCCCCNc1c2ccccc2nc2ccccc12`: the TGI amounted to 11.4 µM.
Same read-out and setting: the same measure for `O=C(/C=C/c1ccc(O)c([N+](=O)[O-])c1)CC(=O)/C=C/c1ccc(O)c([N+](=O)[O-])c1`: above 100 µM; for `CC(C)=CCOC(=O)C(C)=[N+]=[N-]`: above 100 µM; for `Cn1cc2ccccc2c1-c1nc(N)nc(F)n1`: above 100 µM.
In turn, `CC(C)(N=NC(C)(C)C(=O)NCCO)C(=O)NCCO` registered a TGI above 100 µM.
The molecule `c1ccc2c(c1)OC(N1CCCC1)c1cnc(N3CCCC3)nc1-2` (stereo not drawn) yielded a TGI above 100 µM.
Same read-out and setting: the same measure for `CC1=C(O)C(=O)[C@@H]2O[C@@H]2C1=O`: 30.5 µM; for `CC(C)c1ccc2[nH]c(O)c(-c3[nH]c4ccccc4c3N=O)c2c1`: 20.4 µM; for `CCCCCCCCCCCCCCCCCCNc1ccn(C2OC(COP(=O)(O)OCC3OC(n4ccc(NC(=O)CCCCCCCCCCCCCCCCC)nc4=O)C(OC(C)=O)C3OC(C)=O)C(OC(C)=O)C2OC(C)=O)c(=O)n1` (stereo not drawn): above 100 µM.
Same read-out and setting: the same measure for `Cc1nc2c(sc(=S)n2-c2ccccc2)c2nc3ncccc3n12`: above 100 µM.
Molecule `Cc1ccc(-c2c(C#N)c(-c3ccccc3)n(NS(=O)(=O)c3ccccc3)c(=O)c2C#N)cc1` registered a TGI above 100 µM.
On the same count and under the same terms, the result for `COc1ccc(N2C(=O)C3c4[nH]c5ccc(OCc6ccccc6)cc5c4C4CCC(C(C)(C)C)CC4C3C2=O)cc1` (stereo not drawn) reads above 100 µM; that for `COc1ccc(C(C#N)NNC(=O)c2ccccc2O)cc1OC` (stereo not drawn), above 100 µM.
Same read-out and setting: the result for `O=c1[nH]n2c(=O)cc[nH]c2c1-c1nnns1` reads above 100 µM; that for `N.N.N.O=[N+]([O-])[O-].O=[N+]([O-])[O-].O=[N+]([O-])[O-].O=[N+]([O-])[O-].[Co+3]`, above 100 µM.
The same measure, in the same setting: the same measure for `Cc1nnc(Nc2ccccc2)o1`: above 100 µM.

Another assay concerns SK-MEL-2 melanoma. The assay can be described thus: NCI tumour cell line growth inhibition, 48 h.
Molecule `NC(C(F)(F)F)(C(F)(F)F)P(=O)(Cc1ccccc1)Cc1ccccc1` displayed a TGI above 100 µM.
Molecule `CN1C(=O)C2C(=O)N(Cc3ccccc3)CC(=O)N2c2cccnc21` (stereo not drawn) displayed a TGI above 100 µM.
On the same count and under the same terms, the same measure for `Cc1cc(N(CCC#N)CCC#N)ccc1/C=N/NC(=O)c1cc(Cl)ccc1O`: above 100 µM; for `Cc1ccc(C(=O)Nc2ccc(CP(=O)(O)O)cc2CP(=O)(O)O)cc1NC(=O)c1cccc(N)c1`: above 100 µM; for `CN(C)/N=N/c1nc2c(c(=O)n(C)c(=O)n2C)n1C`: above 100 µM.
The same measure, in the same setting: the result for `COc1ccccc1N/C(=C\C(=O)C(=O)NC12CC3CC(CC(C3)C1)C2)c1ccccc1` reads above 10 µM; that for `Nc1cc(CO)cc(Nc2nc3ccc(Cl)cc3c3[nH]c4ccccc4c23)c1`, 15 µM; that for `O=C(CC(=O)n1nc(-c2ccccc2)c(N=Nc2ccccc2C(=O)O)c1-c1ccccc1)Nc1ccc(Cl)cc1`, above 100 µM.
Molecule `CCN1CC2=C(NC(=S)NC2c2ccc(Cl)cc2)/C(=C/c2ccc(Cl)cc2)C1` (stereo not drawn) registered a TGI above 100 µM.
For `CN1C(=O)N(c2ccccc2)C2(CCN(CC3COc4ccccc4O3)CC2)C1=O` (stereo not drawn), the TGI was above 100 µM.
Consider `CCOC(=O)C1Cc2[nH]c3ccccc3c2C(C)C1C` (stereo not drawn), for which the TGI stood at 36 µM.
The same measure, in the same setting: the result for `NC(=O)N/N=C(\Cc1nc2ccc(Cl)cc2[nH]c1=O)C(=O)Nc1ccc(Cl)cc1Cl` reads above 100 µM.
`O=c1nc(N2CCN(c3ccccc3)CC2)ccn1C1OC(CO)C(O)C1O` (stereo not drawn) gave a TGI above 100 µM.
The same measure, in the same setting: the result for `OCCCCCNc1c2ccccc2nc2ccccc12` reads 7.43 µM; that for `O=C(/C=C/c1ccc(O)c([N+](=O)[O-])c1)CC(=O)/C=C/c1ccc(O)c([N+](=O)[O-])c1`, above 100 µM; that for `Cn1cc2ccccc2c1-c1nc(N)nc(F)n1`, above 100 µM.
Still for that read-out and setting: the same measure for `CC(C)(N=NC(C)(C)C(=O)NCCO)C(=O)NCCO`: above 100 µM.
On the same count and under the same terms, the result for `CC1=C(O)C(=O)[C@@H]2O[C@@H]2C1=O` reads 38.1 µM.
In the case of `CC(C)c1ccc2[nH]c(O)c(-c3[nH]c4ccccc4c3N=O)c2c1`, the TGI was 15.1 µM.
The same measure, in the same setting: the same measure for `CCCCCCCCCCCCCCCCCCNc1ccn(C2OC(COP(=O)(O)OCC3OC(n4ccc(NC(=O)CCCCCCCCCCCCCCCCC)nc4=O)C(OC(C)=O)C3OC(C)=O)C(OC(C)=O)C2OC(C)=O)c(=O)n1` (stereo not drawn): above 100 µM; for `Cc1nc2c(sc(=S)n2-c2ccccc2)c2nc3ncccc3n12`: above 100 µM.
Still for that read-out and setting: the result for `Cc1ccc(-c2c(C#N)c(-c3ccccc3)n(NS(=O)(=O)c3ccccc3)c(=O)c2C#N)cc1` reads above 100 µM; that for `COc1ccc(N2C(=O)C3c4[nH]c5ccc(OCc6ccccc6)cc5c4C4CCC(C(C)(C)C)CC4C3C2=O)cc1` (stereo not drawn), above 100 µM; that for `COc1ccc(C(C#N)NNC(=O)c2ccccc2O)cc1OC` (stereo not drawn), 78.2 µM.
On the same count and under the same terms, the result for `O=c1[nH]n2c(=O)cc[nH]c2c1-c1nnns1` reads above 100 µM; that for `N.N.N.O=[N+]([O-])[O-].O=[N+]([O-])[O-].O=[N+]([O-])[O-].O=[N+]([O-])[O-].[Co+3]`, above 100 µM.
Take `Cc1nnc(Nc2ccccc2)o1`: the TGI is above 100 µM.

The subject of another assay is SK-MEL-5 melanoma. As to the kind of experiment: NCI tumour cell line growth inhibition, 48 h.
The molecule `NC(C(F)(F)F)(C(F)(F)F)P(=O)(Cc1ccccc1)Cc1ccccc1` registered a TGI above 100 µM.
Same read-out and setting: the result for `S=C(N/N=C\C=N/NC(=S)N1CCCCC1)N1CCCCC1` reads above 32.4 µM; that for `CN1C(=O)C2C(=O)N(Cc3ccccc3)CC(=O)N2c2cccnc21` (stereo not drawn), above 100 µM; that for `Cc1cc(N(CCC#N)CCC#N)ccc1/C=N/NC(=O)c1cc(Cl)ccc1O`, above 100 µM.
Still for that read-out and setting: the same measure for `Cc1ccc(C(=O)Nc2ccc(CP(=O)(O)O)cc2CP(=O)(O)O)cc1NC(=O)c1cccc(N)c1`: above 100 µM.
Still for that read-out and setting: the same measure for `CN(C)/N=N/c1nc2c(c(=O)n(C)c(=O)n2C)n1C`: above 100 µM; for `COc1ccccc1N/C(=C\C(=O)C(=O)NC12CC3CC(CC(C3)C1)C2)c1ccccc1`: above 10 µM.
Molecule `O=C(CC(=O)n1nc(-c2ccccc2)c(N=Nc2ccccc2C(=O)O)c1-c1ccccc1)Nc1ccc(Cl)cc1` showed a TGI above 100 µM.
`CCN1CC2=C(NC(=S)NC2c2ccc(Cl)cc2)/C(=C/c2ccc(Cl)cc2)C1` (stereo not drawn) yielded a TGI above 100 µM.
On the same count and under the same terms, the same measure for `CN1C(=O)N(c2ccccc2)C2(CCN(CC3COc4ccccc4O3)CC2)C1=O` (stereo not drawn): above 100 µM.
On the same count and under the same terms, the result for `CCOC(=O)C1Cc2[nH]c3ccccc3c2C(C)C1C` (stereo not drawn) reads 26.9 µM; that for `NC(=O)N/N=C(\Cc1nc2ccc(Cl)cc2[nH]c1=O)C(=O)Nc1ccc(Cl)cc1Cl`, above 100 µM; that for `O=c1nc(N2CCN(c3ccccc3)CC2)ccn1C1OC(CO)C(O)C1O` (stereo not drawn), above 100 µM.
On the same count and under the same terms, the same measure for `OCCCCCNc1c2ccccc2nc2ccccc12`: 3.95 µM; for `O=C(/C=C/c1ccc(O)c([N+](=O)[O-])c1)CC(=O)/C=C/c1ccc(O)c([N+](=O)[O-])c1`: above 100 µM; for `CC(C)=CCOC(=O)C(C)=[N+]=[N-]`: above 100 µM.
For the molecule `Cn1cc2ccccc2c1-c1nc(N)nc(F)n1`, the TGI is above 100 µM.
The same measure, in the same setting: the same measure for `CC(C)(N=NC(C)(C)C(=O)NCCO)C(=O)NCCO`: above 100 µM; for `CC1=C(O)C(=O)[C@@H]2O[C@@H]2C1=O`: 30.1 µM; for `CC(C)c1ccc2[nH]c(O)c(-c3[nH]c4ccccc4c3N=O)c2c1`: 15.8 µM.
